Measurements taken from ChEMBL document CHEMBL1909626, “4-N-Hydroxy-4-[1-(sulfonyl)piperidin-4-yl]-butyramides as HDAC inhibitors” (Bioorg Med Chem Lett, 2011).

Assays:
[1] = biological target: T1, Histone deacetylase (Homo sapiens) (UniProt Q13547+O15379+Q9UBN7+Q92769+Q9UQL6+Q8WUI4+Q9BY41+Q96DB2+P56524+Q9UKV0+Q969S8); details: HeLa, at 0.1 µM
Description: Inhibition of HDAC in human HeLa cell extract assessed as fluorophore release at 0.1 uM by fluorescence spectrophotometry

[2] = biological target: T1, Histone deacetylase (Homo sapiens); details: HeLa, at 1 µM
Description: Inhibition of HDAC in human HeLa cell extract assessed as fluorophore release at 1 uM by fluorescence spectrophotometry

[3] = biological target: T1, Histone deacetylase (Homo sapiens); details: HeLa, at 10 µM
Description: Inhibition of HDAC in human HeLa cell extract assessed as fluorophore release at 10 uM by fluorescence spectrophotometry

HCT-116 = assay: Growth inhibition of human HCT116 cells after 5 days by alamar blue assay; type: functional; details: HCT-116, 120 h
Histone deacetylase = assay: Inhibition of HDAC in human HeLa cell extract assessed as fluorophore release by fluorescence spectrophotometry; type: protein assay
Liver = assay: Metabolic stability in rat liver S9 fraction assessed as compound remaining; type: ADME, subcellular
[4] = Fraction unbound in plasma; type: ADME, cell-free

SMILES | inhibition [1] [%] | inhibition [2] [%] | inhibition [3] [%] | GI50 (HCT-116) [nM] | IC50 (Histone deacetylase) [nM] | Stability (Liver) [%] | fraction unbound [4]
O=C(CCCC1CCN(S(=O)(=O)Cc2ccccc2)CC1)NO | 17 | 58 | 71 | 3200 |  |  | 
Cc1cc(C)c(S(=O)(=O)N2CCC(CCCC(=O)NO)CC2)c(C)c1 | 32 | 75 |  |  |  |  | 
O=C(CCCC1CCN(S(=O)(=O)c2ccccc2C(F)(F)F)CC1)NO | 30 | 69 |  |  |  |  | 
Cc1ccccc1S(=O)(=O)N1CCC(CCCC(=O)NO)CC1 | 29 | 69 |  |  |  |  | 
O=C(CCCC1CCN(S(=O)(=O)c2cccc(C(F)(F)F)c2)CC1)NO | 13 | 57 |  |  |  |  | 
Cc1cc(S(=O)(=O)N2CCC(CCCC(=O)NO)CC2)cc2ccccc12 | 48 | 82 | 86 | 17300 | 124 |  | 
CN(c1ccccc1)S(=O)(=O)N1CCC(CCCC(=O)NO)CC1 | 19 | 48 |  |  |  |  | 
COc1ccc(S(=O)(=O)N2CCC(CCCC(=O)NO)CC2)cc1OC | 31 | 71 | 84 |  | 317 |  | 
O=C(/C=C/CC1CCN(S(=O)(=O)c2ccccc2)CC1)NO | 19 | 48 | 78 |  |  |  | 
O=C(CCCC1CCN(S(=O)(=O)NCc2ccccc2)CC1)NO | 29 | 65 |  |  |  |  | 
CN(Cc1ccccc1)S(=O)(=O)N1CCC(CCCC(=O)NO)CC1 | 29 | 56 |  |  |  |  | 
O=C(CCCC1CCN(S(=O)(=O)Nc2ccccc2)CC1)NO | 40 | 70 |  | 2000 |  |  | 
Cc1cc(C)cc(S(=O)(=O)N2CCC(CCCC(=O)NO)CC2)c1 | 22 | 65 | 86 |  |  |  | 
O=C(CCCC1CCN(S(=O)(=O)c2ccccc2O)CC1)NO | 37 | 75 | 84 |  |  |  | 
O=C(CCCC1CCN(S(=O)(=O)c2ccccc2Cl)CC1)NO | 42 | 77 | 86 | 2800 | 173 |  | 
COc1ccc(S(=O)(=O)N2CCC(CCCC(=O)NO)CC2)c(OC)c1 | 22 | 62 | 83 |  |  |  | 

The remaining lines, values ahead:

inhibition [1] [%] | inhibition [2] [%] | inhibition [3] [%] | GI50 (HCT-116) [nM] | IC50 (Histone deacetylase) [nM] | Stability (Liver) [%] | fraction unbound [4] | SMILES
15 | 55 |  |  |  |  |  | O=C(CCCC1CCN(S(=O)(=O)c2ccc(C(F)(F)F)cc2)CC1)NO
28 | 67 | 83 |  |  |  |  | COc1cccc(S(=O)(=O)N2CCC(CCCC(=O)NO)CC2)c1
28 | 71 |  |  |  |  |  | Cc1ccc(S(=O)(=O)N2CCC(CCCC(=O)NO)CC2)cc1
38 | 75 | 85 |  | 213 |  |  | O=C(CCCC1CCN(S(=O)(=O)c2cccc(-c3cnco3)c2)CC1)NO
23 | 63 | 84 | 2700 |  |  |  | O=C(CCCC1CCN(S(=O)(=O)c2ccccc2)CC1)NO
40 | 80 | 74 | 1040 | 181 | 14 | 0.03 | O=C(CCCC1CCN(S(=O)(=O)c2cccc3ccccc23)CC1)NO
9 | 51 |  |  |  |  |  | CC(C)(C)c1ccc(S(=O)(=O)N2CCC(CCCC(=O)NO)CC2)cc1
36 | 72 |  |  |  |  |  | O=C(CCCC1CCN(S(=O)(=O)c2ccc3c(c2)CCO3)CC1)NO
32 | 71 |  |  |  |  |  | CN1CCOc2cc(S(=O)(=O)N3CCC(CCCC(=O)NO)CC3)ccc21
29 | 68 |  |  |  |  |  | O=C(CCCC1CCN(S(=O)(=O)c2ccc3c(c2)OCCO3)CC1)NO
24 | 61 | 83 |  |  |  |  | Cc1cccc(S(=O)(=O)N2CCC(CCCC(=O)NO)CC2)c1
26 | 69 | 84 |  |  |  |  | O=C(CCCC1CCN(S(=O)(=O)c2ccc3ncsc3c2)CC1)NO
53 | 68 | 86 | 1900 | 128 | 2 | 0.02 | O=C(CCCC1CCN(S(=O)(=O)c2ccc3ccccc3c2)CC1)NO
4 | 40 |  |  |  |  |  | O=C(CCCC1CCN(S(=O)(=O)c2cccc(Cl)c2)CC1)NO
18 | 66 | 84 |  | 537 |  |  | CC(C)c1ccc(S(=O)(=O)N2CCC(CCCC(=O)NO)CC2)cc1
30 | 75 | 86 |  |  |  |  | CC1(C)CCc2cc(S(=O)(=O)N3CCC(CCCC(=O)NO)CC3)ccc2O1
25 | 62 |  |  |  |  |  | O=C(CCCC1CCN(S(=O)(=O)c2ccc(Cl)cc2)CC1)NO
21 | 60 |  |  |  |  |  | O=C(CCCC1CCN(S(=O)(=O)c2ccc(F)cc2)CC1)NO
35 | 74 |  |  |  |  |  | O=C(CCCC1CCN(S(=O)(=O)c2ccc(-c3cnco3)cc2)CC1)NO
20 | 44 | 80 |  |  |  |  | O=C(CCCC1CCN(S(=O)(=O)c2ccc(-c3ccccc3)cc2)CC1)NO
